The target in data set [1] is T1, MATE1 (Homo sapiens, UniProt Q96FL8).
T1 sequence (Q96FL8 1-570): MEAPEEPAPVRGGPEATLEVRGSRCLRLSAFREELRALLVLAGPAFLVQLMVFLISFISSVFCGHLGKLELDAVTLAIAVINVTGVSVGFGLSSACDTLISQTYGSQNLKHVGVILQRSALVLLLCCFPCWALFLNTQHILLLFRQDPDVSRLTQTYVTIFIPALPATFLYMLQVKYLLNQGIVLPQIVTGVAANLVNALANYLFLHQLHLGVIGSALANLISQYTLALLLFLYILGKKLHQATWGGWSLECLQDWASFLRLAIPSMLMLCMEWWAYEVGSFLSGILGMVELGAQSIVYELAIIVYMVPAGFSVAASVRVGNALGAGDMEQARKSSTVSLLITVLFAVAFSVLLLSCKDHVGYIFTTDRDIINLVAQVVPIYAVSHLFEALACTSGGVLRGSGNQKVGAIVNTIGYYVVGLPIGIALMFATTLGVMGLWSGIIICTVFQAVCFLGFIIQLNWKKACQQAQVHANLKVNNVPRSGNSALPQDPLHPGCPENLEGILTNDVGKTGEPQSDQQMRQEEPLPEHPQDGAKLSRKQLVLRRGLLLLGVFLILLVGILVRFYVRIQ
As to the method: (§1) [^14C]-Metformin (1 mM) was provided as a solid and was prepared in Hank's balanced salt solution (HBSS).
(§2) Cells were plated onto standard 24-well tissue culture plates in cell culture medium 1 to 3 days before the experiment. MATE1 and MATE2-K and control cells were incubated with butyric acid (10 mM) for 24 hours before the experiment to inhibit suppression of the transporter.

Data set [2] has as its target MATE2-K (Homo sapiens, UniProt Q86VL8). Conditions: [14C]-Metformin 10 μM. Here is the method:
as §1, §2

Data set [3] concerns the target T2, BCRP (Homo sapiens, UniProt Q9UNQ0).
T2 sequence (Q9UNQ0 1-655): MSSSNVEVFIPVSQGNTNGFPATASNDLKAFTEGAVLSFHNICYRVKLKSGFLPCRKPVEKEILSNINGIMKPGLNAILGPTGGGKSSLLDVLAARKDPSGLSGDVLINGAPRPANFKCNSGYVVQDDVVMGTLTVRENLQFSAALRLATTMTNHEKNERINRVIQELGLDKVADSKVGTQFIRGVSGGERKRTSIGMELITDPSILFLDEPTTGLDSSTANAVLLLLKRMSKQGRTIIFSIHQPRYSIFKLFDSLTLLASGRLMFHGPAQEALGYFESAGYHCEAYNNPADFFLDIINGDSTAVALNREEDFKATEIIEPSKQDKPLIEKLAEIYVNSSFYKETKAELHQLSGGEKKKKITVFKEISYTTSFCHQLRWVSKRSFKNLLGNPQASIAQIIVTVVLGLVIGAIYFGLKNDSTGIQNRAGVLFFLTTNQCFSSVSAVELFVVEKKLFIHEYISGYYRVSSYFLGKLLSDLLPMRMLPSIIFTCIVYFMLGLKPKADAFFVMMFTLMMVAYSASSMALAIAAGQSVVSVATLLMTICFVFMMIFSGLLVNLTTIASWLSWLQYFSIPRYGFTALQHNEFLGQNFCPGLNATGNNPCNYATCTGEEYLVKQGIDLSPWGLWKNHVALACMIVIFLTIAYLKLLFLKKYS
Description: BCRP inhibition: bidirectional transport of prazosin across MDCKII-BCRP and control MDCKII cells. The source says:
MDCKII P-gp, MDCKII BCRP and control MDCKII cells were purchased from the Netherlands Cancer Institute.

For data set [4], the target named is P-gp (Homo sapiens, UniProt P08183). Description: P-gp inhibition: bidirectional transport of digoxin across Caco-2 cells. For orientation: Caco-2 cells form a polarised layer with tight junctions and transporters.

From patent US20200170975A1 (Strongbridge Dublin Limited, priority 2018, published 2020) come the findings set out here.

Like-named read-outs stand apart in the source and are kept apart here.

Chain of MATE2-K (Q86VL8 1-566 isoform Q86VL8-3): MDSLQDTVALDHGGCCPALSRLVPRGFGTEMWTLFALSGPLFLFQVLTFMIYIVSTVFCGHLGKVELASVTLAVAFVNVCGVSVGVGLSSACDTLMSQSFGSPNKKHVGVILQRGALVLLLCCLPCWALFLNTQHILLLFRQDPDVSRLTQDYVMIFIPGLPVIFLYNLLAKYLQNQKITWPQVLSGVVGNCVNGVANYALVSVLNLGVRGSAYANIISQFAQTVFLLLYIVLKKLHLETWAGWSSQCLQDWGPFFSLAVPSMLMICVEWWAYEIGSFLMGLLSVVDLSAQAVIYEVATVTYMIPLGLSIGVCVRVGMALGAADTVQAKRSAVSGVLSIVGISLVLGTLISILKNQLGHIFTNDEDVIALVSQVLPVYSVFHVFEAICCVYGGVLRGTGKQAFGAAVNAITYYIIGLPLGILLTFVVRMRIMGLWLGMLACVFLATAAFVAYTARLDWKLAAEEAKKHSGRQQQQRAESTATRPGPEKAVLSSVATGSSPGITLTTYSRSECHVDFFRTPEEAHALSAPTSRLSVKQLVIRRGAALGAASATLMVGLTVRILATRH
Chain of P-gp (P08183 whole entry): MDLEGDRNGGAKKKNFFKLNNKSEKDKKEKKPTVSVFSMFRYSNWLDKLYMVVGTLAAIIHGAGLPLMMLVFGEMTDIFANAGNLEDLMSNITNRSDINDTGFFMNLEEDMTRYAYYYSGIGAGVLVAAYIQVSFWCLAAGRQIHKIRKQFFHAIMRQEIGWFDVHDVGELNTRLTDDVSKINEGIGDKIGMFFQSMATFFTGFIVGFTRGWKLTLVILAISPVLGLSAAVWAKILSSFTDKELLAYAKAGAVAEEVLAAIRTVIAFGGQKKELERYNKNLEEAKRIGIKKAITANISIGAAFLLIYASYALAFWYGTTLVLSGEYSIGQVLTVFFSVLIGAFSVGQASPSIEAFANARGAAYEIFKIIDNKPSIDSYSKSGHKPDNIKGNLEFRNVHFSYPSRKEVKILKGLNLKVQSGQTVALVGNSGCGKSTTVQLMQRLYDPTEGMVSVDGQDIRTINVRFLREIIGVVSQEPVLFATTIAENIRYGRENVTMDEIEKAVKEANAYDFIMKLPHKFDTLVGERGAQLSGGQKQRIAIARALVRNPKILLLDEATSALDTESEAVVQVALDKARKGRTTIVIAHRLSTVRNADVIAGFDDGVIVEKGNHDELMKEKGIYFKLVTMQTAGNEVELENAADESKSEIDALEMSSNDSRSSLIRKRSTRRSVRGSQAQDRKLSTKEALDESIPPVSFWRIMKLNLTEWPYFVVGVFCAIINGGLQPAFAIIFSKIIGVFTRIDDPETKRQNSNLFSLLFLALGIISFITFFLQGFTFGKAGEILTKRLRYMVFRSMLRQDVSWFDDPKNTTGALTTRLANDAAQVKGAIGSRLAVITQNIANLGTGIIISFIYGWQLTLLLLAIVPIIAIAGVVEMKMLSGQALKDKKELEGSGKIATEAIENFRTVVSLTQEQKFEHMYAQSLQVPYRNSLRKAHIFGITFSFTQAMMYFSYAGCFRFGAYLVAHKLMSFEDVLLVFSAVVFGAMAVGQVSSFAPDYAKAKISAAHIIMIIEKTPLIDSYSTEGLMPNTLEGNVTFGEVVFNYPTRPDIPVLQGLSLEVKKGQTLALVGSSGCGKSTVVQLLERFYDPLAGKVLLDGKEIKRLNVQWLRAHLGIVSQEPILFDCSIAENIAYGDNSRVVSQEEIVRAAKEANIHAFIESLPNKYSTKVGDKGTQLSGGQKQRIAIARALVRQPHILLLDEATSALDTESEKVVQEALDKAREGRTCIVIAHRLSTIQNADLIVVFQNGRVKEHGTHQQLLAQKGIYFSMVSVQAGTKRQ

For `CN/C(=N/CCSCc1nc[nH]c1C)NC#N` [Cimetidine], the “% control” value in data set [1] (HEK293 cells, inhibitor 10 μm) was 19.3%; in data set [2] (inhibitor 300 μM) it was 18.1%. The “Background corrected uptake rate” value in data set [1] (HEK293 cells, inhibitor 10 μm) was 16.0 pmol/mg/min; in data set [2] (inhibitor 300 μM), 4.99 pmol/mg/min. Besides, in data set [1] (MATE1 HEK293 cells, inhibitor 10 μm), the “Uptake, MATE1 (Average ± SD)” value came out at 85.2 ± 7.8 pmol/mg protein. For the same molecule, the “Uptake, Control (Average ± SD)” value in data set [1] (control HEK293 cells, inhibitor 10 μm) is reported as 5.20 ± 0.63 pmol/mg protein; in data set [2] (control HEK293 cells, inhibitor 300 μM) it was 7.34 ± 0.20 pmol/mg protein. Also, in data set [2] (MATE2-K HEK293 cells, inhibitor 300 μM), the “Uptake, MATE2-K (Average ± SD)” value stood at 32.3 ± 11.7 pmol/mg protein.
`Cc1cccc(C)c1OCC(=O)N[C@@H](Cc1ccccc1)[C@@H](O)C[C@H](Cc1ccccc1)NC(=O)[C@H](C(C)C)N1CCCNC1=O` [Lopinavir]: the “Papp Apical to basal (Average ± SD)” value in data set [3] is 3.23e-05 cm/s; in data set [3] (MDCK), 13.3 ± 10.0 ×10^−6 cm/sec. In addition, the figures for the “Papp Basal to apical (Average ± SD)” value in data set [3] and in data set [3] (MDCK) were 37.6 ± 1.6 ×10^−6 cm/sec and 20.9 ± 4.7 ×10^−6 cm/sec, respectively.
Regarding `CCc1nc(N)nc(N)c1-c1ccc(Cl)cc1` [Pyrimethamine], the “% control” value is reported as 14.2% in data set [1] (HEK293 cells, inhibitor 0.1 μm) and 50.6% in data set [2] (inhibitor 0.3 μM).
With `C/C=C/C[C@@H](C)C(=O)[C@H]1C(=O)N[C@@H](C(C)C)C(=O)N(C)CC(=O)N(C)[C@@H](CC(C)C)C(=O)N[C@@H](C(C)C)C(=O)N(C)[C@@H](CC(C)C)C(=O)N[C@@H](C)C(=O)N[C@H](C)C(=O)N(C)[C@@H](CC(C)C)C(=O)N(C)[C@@H](CC(C)C)C(=O)N(C)[C@@H](C(C)C)C(=O)N1C` [Valspodar], in data set [4], the “Papp A:B (Average ± SD)” value is recorded as 9.12 ± 1.34 ×10^−6 cm/sec and the “Papp B:A (Average ± SD)” value is 10.0 ± 2.5 ×10^−6 cm/sec.
